Data on eleven compounds can be found in ChEMBL document CHEMBL1125692 (J Med Chem, 1991).

For experiment [1], the target named is T1, D(2) dopamine receptor (Rattus norvegicus, UniProt P61169). As to the kind of experiment: Displacement of [3H]- spiperone from dopamine receptor D2 of striatal membranes without sodium chloride.
Experiment [2] addresses T1, D(2) dopamine receptor. As to the kind of experiment: Compound was evaluated for binding affinity towards dopamine receptor D2 in striatal membranes, using [3H]- spiperone as radioligand in the presence of sodium chloride. The format is cell membranes.
For experiment [3], the target named is T2, Adrenergic receptor alpha-2 (Rattus norvegicus, UniProt P22086+P19328+P22909).
T2 sequence (P22086 whole entry): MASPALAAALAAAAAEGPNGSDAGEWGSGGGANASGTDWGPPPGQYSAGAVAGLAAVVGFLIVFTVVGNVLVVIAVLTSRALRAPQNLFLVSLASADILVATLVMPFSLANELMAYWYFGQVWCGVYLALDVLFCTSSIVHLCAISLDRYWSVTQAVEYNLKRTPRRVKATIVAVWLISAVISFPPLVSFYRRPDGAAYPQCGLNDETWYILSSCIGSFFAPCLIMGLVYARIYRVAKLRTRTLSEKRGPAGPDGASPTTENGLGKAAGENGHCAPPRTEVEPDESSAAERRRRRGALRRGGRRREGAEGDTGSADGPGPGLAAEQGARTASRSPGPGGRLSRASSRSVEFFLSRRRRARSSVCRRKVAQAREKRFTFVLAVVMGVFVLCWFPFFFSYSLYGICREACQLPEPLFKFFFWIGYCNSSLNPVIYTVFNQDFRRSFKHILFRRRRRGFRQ
T2 sequence (P19328 whole entry): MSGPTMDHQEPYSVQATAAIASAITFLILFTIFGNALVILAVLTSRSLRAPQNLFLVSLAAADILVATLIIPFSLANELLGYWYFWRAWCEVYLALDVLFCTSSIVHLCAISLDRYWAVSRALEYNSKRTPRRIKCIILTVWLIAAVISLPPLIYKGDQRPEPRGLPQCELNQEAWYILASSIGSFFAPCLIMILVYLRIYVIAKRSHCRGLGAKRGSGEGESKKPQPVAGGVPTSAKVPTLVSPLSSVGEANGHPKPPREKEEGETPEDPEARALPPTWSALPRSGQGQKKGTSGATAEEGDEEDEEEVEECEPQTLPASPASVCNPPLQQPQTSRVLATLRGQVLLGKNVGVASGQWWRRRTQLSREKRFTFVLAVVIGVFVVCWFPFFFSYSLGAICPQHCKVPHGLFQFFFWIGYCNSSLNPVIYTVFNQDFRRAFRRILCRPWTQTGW
T2 sequence (P22909 whole entry): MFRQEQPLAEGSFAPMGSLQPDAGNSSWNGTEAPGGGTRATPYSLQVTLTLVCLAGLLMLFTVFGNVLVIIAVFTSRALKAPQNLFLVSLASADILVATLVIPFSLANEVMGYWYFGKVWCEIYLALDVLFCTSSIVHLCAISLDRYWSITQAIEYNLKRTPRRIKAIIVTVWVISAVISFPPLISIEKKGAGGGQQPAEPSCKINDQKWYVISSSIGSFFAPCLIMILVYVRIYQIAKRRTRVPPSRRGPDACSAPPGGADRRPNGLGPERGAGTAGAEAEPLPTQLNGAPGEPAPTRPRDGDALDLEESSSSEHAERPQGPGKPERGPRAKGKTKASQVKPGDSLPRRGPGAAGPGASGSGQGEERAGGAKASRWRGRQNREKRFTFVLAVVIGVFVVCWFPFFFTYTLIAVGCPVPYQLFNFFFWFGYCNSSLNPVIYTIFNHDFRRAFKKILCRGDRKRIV
Put plainly: binding affinity towards alpha-2 adrenergic receptor, using [3H]- atipamezole as radioligand from rat frontal cortex membranes. Format: tissue-based.

In general, Ki refers to the equilibrium dissociation constant of an inhibitor or competing ligand from its target.

T1 sequence (P61169 whole entry): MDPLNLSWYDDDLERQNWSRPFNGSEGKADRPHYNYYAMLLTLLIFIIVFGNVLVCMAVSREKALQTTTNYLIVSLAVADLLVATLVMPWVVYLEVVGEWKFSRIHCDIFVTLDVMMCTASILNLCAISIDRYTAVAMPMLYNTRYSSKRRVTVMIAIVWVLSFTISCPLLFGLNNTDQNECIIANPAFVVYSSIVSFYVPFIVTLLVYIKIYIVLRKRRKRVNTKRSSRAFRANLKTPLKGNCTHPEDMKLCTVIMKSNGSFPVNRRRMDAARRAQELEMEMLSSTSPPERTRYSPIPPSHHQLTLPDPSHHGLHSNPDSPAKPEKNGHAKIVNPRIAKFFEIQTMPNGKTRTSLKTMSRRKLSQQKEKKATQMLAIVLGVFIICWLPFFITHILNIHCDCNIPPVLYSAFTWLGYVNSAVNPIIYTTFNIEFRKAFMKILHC

As for `CCN1CCC[C@@H]1CNC(=O)c1cc(CCF)cc(OC)c1OC`, the Ki at D(2) dopamine receptor [1] is over 10000 nM.
With `CCN1CCC[C@@H]1CNC(=O)c1c(O)c(CCCF)cc(OC)c1OC`, on D(2) dopamine receptor [1], the Ki was over 10000 nM.
On to `CCN1CCC[C@H]1CNC(=O)c1cc(CCF)cc(OC)c1OC`, for which the results for the Ki at D(2) dopamine receptor [1] and at D(2) dopamine receptor [2] were 5.27 nM and 1.41 nM, respectively.
Regarding `CCN1CCC[C@H]1CNC(=O)c1cc(Br)cc(OC)c1OC`, the Ki was 0.76 nM at D(2) dopamine receptor [1] and 0.2 nM at D(2) dopamine receptor [2].
Compound `CCN1CCC[C@H]1CNC(=O)c1cccc(OC)c1OC` showed a Ki at D(2) dopamine receptor [1] of 66 nM.
Compound `CCCc1cc(OC)c(OC)c(C(=O)NC[C@@H]2CCCN2CC)c1O` yielded an inhibitory constant (Ki) at D(2) dopamine receptor [1] of 1.28 nM.
Regarding `CCN1CCC[C@H]1CNC(=O)c1c(O)c(CCCF)cc(OC)c1OC`, the Ki on D(2) dopamine receptor [1] worked out at 0.8 nM; on D(2) dopamine receptor [2], 0.25 nM; in experiment [3] it was 11.1 nM.
Turning to `CCN1CCC[C@H]1CNC(=O)c1cc(CCCF)cc(OC)c1OC`, the Ki worked out at 4.4 nM at D(2) dopamine receptor [1] and 1.17 nM at D(2) dopamine receptor [2].
With `CCN1CCC[C@H]1CNC(=O)c1c(O)c(CCF)cc(OC)c1OC`, the Ki at D(2) dopamine receptor [1] is 0.77 nM; at D(2) dopamine receptor [2] it was 0.24 nM; in experiment [3] it was 9.5 nM.
As for `CCCc1cc(OC)c(OC)c(C(=O)NC[C@@H]2CCCN2CC)c1`, on D(2) dopamine receptor [1], affinity was put at a Ki of 6.98 nM.
With `CCN1CCC[C@H]1CNC(=O)c1cc(I)cc(OC)c1OC` [EPIDEPRIDE], the figures for the Ki (on D(2) dopamine receptor [2]; in experiment [3]) were 0.27 nM and 5 nM, respectively.
